Laboratory results as given in US20220195384A1, “COMPOSITION FOR PROMOTING PRODUCTION OF STEM CELL-DERIVED EXOSOMES AND INCREASING STEMNESS” (BREXOGEN INC., priority 2019, published 2022).

How the values were obtained:
Assay type in all cases: cell-based
[1] = test system: primary umbilical cord-derived mesenchymal stem cells; experiment: Stem cell stemness: colony formation (CFU-F, crystal violet) after pretreatment; conditions: for colonies formed (each 50 or more cells): 1,000 cells/dish, 21 days; for CFU-F increase: vs non-treated
Experimental: (§1) In a culture medium [high glucose DMEM (Gibco, Cat no. 11995-065); 10% fetal bovine serum (HyClone), 1% MEM non-essential amino acids solution (100×) (Gibco, Cat no. 11140-050)] containing 20 nM of exendin-4, primary umbilical cord-derived mesenchymal stem cells (ATCC No. PCS-500-010; Lot No. 63822428) were cultured for one week.
as §1, with “10” for “20”, “PMA,” for “exendin-4,”
as §1, with “10 ng/mL interferon-γ,” for “20 nM of exendin-4,”
as §1, with “10 μM” for “20 nM”, “tetrandrine,” for “exendin-4,”
as §1, with “10 μg/mL hyaluronic acid,” for “20 nM of exendin-4,”
as §1, with “30” for “20”, “substance P,” for “exendin-4,”
as §1, with “10” for “20”, “resveratrol,” for “exendin-4,”
as §1, with “10 μM” for “20 nM”, “lanifibranor,” for “exendin-4,”
Mesenchymal stem cells and the exendin-4-pretreated mesenchymal stem cells of the Example were each seeded at a density of 1,000 cells/dish into 100-mm cell culture dishes containing […] of a culture medium [high glucose DMEM (Gibco, Cat no. 11995-065), 10% fetal bovine serum (HyClone), 1% MEM non-essential amino acids solution (100×) (Gibco, Cat no. 11140-050)] per dish and cultured for 21 days. The cell-attached dishes were washed twice with PBS, followed by fixation with 95% methanol at room temperature for about 2 min. The fixed cells were washed three times with PBS and stained with 0.5% crystal violet [(sigma, C-3886, USA) […], methanol 100 ml] for 5 min. After water washing and drying at room temperature, colonies, each composed of 50 or more cells, were counted for comparison.
Mesenchymal stem cells and the PMA-pretreated mesenchymal stem cells of the Example were each seeded at a density of 1,000 cells/dish into 100-mm cell culture dishes containing […] of a culture medium [high glucose DMEM (Gibco, Cat no. 11995-065), 10% fetal bovine serum (HyClone), 1% MEM non-essential amino acids solution (100×) (Gibco, Cat no. 11140-050)] per dish and cultured for 21 days. The cell-attached dishes were washed twice with PBS, followed by fixation with 95% methanol at room temperature for about 2 min. […]

[2] = test system: primary umbilical cord-derived mesenchymal stem cells; experiment: Stem cell proliferation (CCK, absorbance 450 nm) after pretreatment; conditions: 24 h culture, CCK 4 h
Experimental: as §1
as §1, with “10” for “20”, “PMA,” for “exendin-4,”
as §1, with “10 ng/mL interferon-γ,” for “20 nM of exendin-4,”
as §1, with “10 μM” for “20 nM”, “tetrandrine,” for “exendin-4,”
as §1, with “10 μg/mL hyaluronic acid,” for “20 nM of exendin-4,”
as §1, with “30” for “20”, “substance P,” for “exendin-4,”
as §1, with “10” for “20”, “resveratrol,” for “exendin-4,”
as §1, with “10 μM” for “20 nM”, “lanifibranor,” for “exendin-4,”
(§2) Mesenchymal stem cells and the exendin-4-pretreated mesenchymal stem cells of the Example were each seeded at a density of 3,000 cells/well into 96-well plates containing 100 μL of a culture medium [high glucose DMEM (Gibco, Cat no. 11995-065), 10% fetal bovine serum (HyClone), 1% MEM non-essential amino acids solution (100×) (Gibco, Cat no. 11140-050)] per well and cultured for 24 hours in a CO2 incubator. Then, CCK solution (10 μL/well) was added, and incubation was continued for 4 hours in the CO2 incubator, followed by reading absorbance at a wavelength of 450 nm (420-480 nm) to determine proliferation.
as §2, with “PMA-pretreated” for “exendin-4-pretreated”, “proliferation. […]” for “proliferation.”

[3] = test system: primary umbilical cord-derived mesenchymal stem cells; experiment: Content of exosomal RNA (NanoDrop); conditions: for Exosomal RNA, yield per 10^6 cells: then 72 h exosome-free FBS medium
Experimental: as §1
(§3) After completion of culturing, the mesenchymal stem cells pretreated with exendin-4 were washed and additionally cultured for 72 hours in a culture medium supplemented with 10% fetal bovine serum (FBS) free of exosomes. The reason of employing exosome-free FBS was to prevent FBS-derived exosomes other than those secreted from the cells from being incorporated because generally used FBS contained a large amount of exosomes derived from bovine serum.
(§4) After 72 hours of culturing, the culture medium in which the pretreated mesenchymal stem cells were cultured was taken and centrifuged at 300×g for 10 min to remove residual cells and cell debris. The supernatant was filtered through a 0.22 μm filter, followed by centrifugation at 10,000×g and 4° C. for 70 min in a high-speed centrifuge. The supernatant thus obtained was subjected again to ultracentrifugation at 100,000×g and 4° C. for 90 min. The exosomes obtained as a pellet were diluted in PBS (phosphate buffered saline) before use in the following experiments.
as §1, with “10” for “20”, “PMA,” for “exendin-4,”
as §3, with “PMA” for “exendin-4”
as §1, with “10 ng/mL interferon-γ,” for “20 nM of exendin-4,”
as §3, with “interferon-γ” for “exendin-4”
as §1, with “10 μM” for “20 nM”, “tetrandrine,” for “exendin-4,”
as §3, with “tetrandrine” for “exendin-4”, “serum. […]” for “serum.”

[4] = test system: primary umbilical cord-derived mesenchymal stem cells; experiment: Content of exosomal protein (Bradford analysis, 595 nm); conditions: for Exosomal protein, yield per 10^6 cells: then 72 h exosome-free FBS medium, non-treated 2.0
Experimental: as §1, §3, §4
as §1, with “10” for “20”, “PMA,” for “exendin-4,”
as §3, with “PMA” for “exendin-4”
as §1, with “10 ng/mL interferon-γ,” for “20 nM of exendin-4,”
as §3, with “interferon-γ” for “exendin-4”
as §1, with “10 μM” for “20 nM”, “tetrandrine,” for “exendin-4,”
as §3, with “tetrandrine” for “exendin-4”, “serum. […]” for “serum.”

[5] = test system: primary umbilical cord-derived mesenchymal stem cells; experiment: Number of exosomes by nanoparticle tracking assay (NanoSight NS300); conditions: for No. of exosome particles, yield per 10^6 cells: then 72 h exosome-free FBS medium
Experimental: as §1, §3, §4
as §1, with “10” for “20”, “PMA,” for “exendin-4,”
as §3, with “PMA” for “exendin-4”
as §1, with “10 ng/mL interferon-γ,” for “20 nM of exendin-4,”
as §3, with “interferon-γ” for “exendin-4”
as §1, with “10 μM” for “20 nM”, “tetrandrine,” for “exendin-4,”
as §3, with “tetrandrine” for “exendin-4”, “serum. […]” for “serum.”

[6] = 10 nM PMA pretreatment one week
[7] = 10 μM lanifibranor pretreatment one week
[8] = 10 nM resveratrol pretreatment one week
[9] = 10 μM tetrandrine pretreatment one week

Q: Which results are given for `CCCCCCCCCCCCCC(=O)O[C@@H]1[C@@H](C)[C@@]2(O)[C@@H](C=C(CO)C[C@]3(O)C(=O)C(C)=C[C@@H]23)[C@@H]2C(C)(C)[C@]12OC(C)=O` [PMA, phorbol 12-myristate 13-acetate]?
A: colonies formed (each 50 or more cells) ([1]; 10 nM PMA pretreatment one week, non-treated 28.6): 285.7 colonies; CFU-F increase [1, 6]: about 996.5%; increase in proliferation relative to non-treated mesenchymal stem cells [2, 6]: about 220%; proliferation ratio relative to non-treated mesenchymal stem cells (1) [2, 6]: 2.2; fold greater exosomal RNA than non-treated mesenchymal stem cells [3, 6]: about 4 fold; Exosomal RNA, yield per 10^6 cells ([3]; 10 nM PMA pretreatment one week, non-treated 31.0): 125.0 ng; fold greater exosomal proteins than non-treated mesenchymal stem cells [4, 6]: about 5 fold; Exosomal protein, yield per 10^6 cells [4, 6]: 10.0 ug; fold more exosomes than non-treated mesenchymal stem cells [5, 6]: about 5.2 fold; No. of exosome particles, yield per 10^6 cells ([5]; 10 nM PMA pretreatment one week, non-treated 2.3): 11.90 10^9

Q: Which results are given for `O=C(O)CCCc1cc2cc(Cl)ccc2n1S(=O)(=O)c1ccc2ncsc2c1` [lanifibranor]?
A: colonies formed (each 50 or more cells) ([1]; 10 μM lanifibranor pretreatment one week, non-treated 40): 56.7 colonies; CFU-F increase [1, 7]: about 142%; increase in proliferation relative to non-treated mesenchymal stem cells [2, 7]: about 181%; proliferation ratio relative to non-treated mesenchymal stem cells (1) [2, 7]: 1.81; fold greater exosomal RNA than non-treated mesenchymal stem cells [3, 7]: about 4.1 fold; Exosomal RNA, yield per 10^6 cells ([3]; 10 μM lanifibranor pretreatment one week, non-treated 27.00): 110.34 ng; fold greater exosomal proteins than non-treated mesenchymal stem cells [4, 7]: about 4.6 fold; Exosomal protein, yield per 10^6 cells [4, 7]: 9.2 ug; fold more exosomes than non-treated mesenchymal stem cells [5, 7]: about 4.95 fold; No. of exosome particles, yield per 10^6 cells ([5]; 10 μM lanifibranor pretreatment one week, non-treated 2.30): 11.4 10^9

Q: For `Oc1ccc(C=Cc2cc(O)cc(O)c2)cc1` [resveratrol], which “colonies formed (each 50 or more cells)” value ([1]; 10 nM resveratrol pretreatment one week, non-treated 28.6) is on record?
A: 311 colonies

Q: And the CFU-F increase [1, 8]?
A: about 1,087%

Q: What about the “increase in proliferation relative to non-treated mesenchymal stem cells” value [2, 8] of the same compound?
A: about 322%

Q: And the “proliferation ratio relative to non-treated mesenchymal stem cells (1)” value [2, 8]?
A: 3.22

Q: What about the “fold greater exosomal RNA than non-treated mesenchymal stem cells” value [3, 8] of the same compound?
A: about 4.7 fold

Q: What about the “Exosomal RNA, yield per 10^6 cells” value ([3]; 10 nM resveratrol pretreatment one week, non-treated 31.0) of the same compound?
A: 145.15 ng

Q: What about the “fold greater exosomal proteins than non-treated mesenchymal stem cells” value [4, 8] of the same compound?
A: about 5.4 fold

Q: What about the “Exosomal protein, yield per 10^6 cells” value [4, 8] of the same compound?
A: 10.78 ug

Q: What about the “fold more exosomes than non-treated mesenchymal stem cells” value [5, 8] of the same compound?
A: about 5.2 fold

Q: What about the “No. of exosome particles, yield per 10^6 cells” value ([5]; 10 nM resveratrol pretreatment one week, non-treated 2.3) of the same compound?
A: 11.9 10^9

Q: What does the source list for `COc1ccc2cc1Oc1ccc(cc1)C[C@H]1c3cc(c(OC)cc3CCN1C)Oc1c(OC)c(OC)cc3c1[C@H](C2)N(C)CC3` [tetrandrine]?
A: colonies formed (each 50 or more cells) ([1]; 10 μM tetrandrine pretreatment one week, non-treated 28.7): 121.3 colonies; CFU-F increase [1, 9]: about 423%; increase in proliferation relative to non-treated mesenchymal stem cells [2, 9]: about 260%; proliferation ratio relative to non-treated mesenchymal stem cells (1) [2, 9]: 2.6; fold greater exosomal RNA than non-treated mesenchymal stem cells [3, 9]: about 4.4 fold; Exosomal RNA, yield per 10^6 cells ([3]; 10 μM tetrandrine pretreatment one week, non-treated 31.0): 136.0 ng; fold greater exosomal proteins than non-treated mesenchymal stem cells [4, 9]: about 4.5 fold; Exosomal protein, yield per 10^6 cells [4, 9]: 9.42 ug; fold more exosomes than non-treated mesenchymal stem cells [5, 9]: about 4.3 fold; No. of exosome particles, yield per 10^6 cells ([5]; 10 μM tetrandrine pretreatment one week, non-treated 2.3): 9.84 10^9
